Data as given in patent publication US20210332024A1, “MODULATORS OF PIN1 ACTIVITY AND USES THEREOF” (Yeda Research and Development Co. Ltd., priority 2019, published 2021).

Experiments:
GST-Pin1 = GST-Pin1 (Homo sapiens, UniProt Q13526); assay: Fluorescence polarization (FP) competition assay; format: binding; conditions: FP assay, competition with fluorescein-labeled peptide, 250 nM GST-Pin1; read-out: Ki (apparent)
Description: Binding affinity to Pin1 was determined using a fluorescence polarization assay to assess competition with an N-terminal fluorescein-labeled peptide (Bth-D-phosThr-Pip-Nal), which was obtained from JPT Peptide Technologies and Proteintech Group. The indicated concentrations of candidate compound were pre-incubated for 12 hours at 4° C. with a solution containing 250 nM glutathione S-transferase (GST)-Pin1, 5 nM of fluorescein-labeled peptide probe, 10 μg/ml bovine serum albumin, 0.01% Tween-20 and 1 mM DTT (dithiothreitol) in a buffer of 10 mM HEPES, 10 mM NaCl and 1% glycerol (pH 7.4). Measurements of FP were performed in black 384-well plates (Corning) using an EnVision™ reader. Apparent Ki values (under the tested conditions) obtained from the FP assay results were derived from the Kenakin Ki equation:
Kenakin Ki=(Lb)(EC50)(Kd)/(Lo)(Ro)+Lb(Ro−Lo+Lb−Kd)
Sittampalam G. S. et al., Eli Lilly & Company and the National Center for Advancing Translational Sciences, 2004].
Covalent labeling of Pin1 was confirmed to translate into enzyme inhibition via a fluorescence polarization (FP) competition assay using a FITC-labeled substrate mimetic peptide inhibitor, as well as a chymotrypsin-coupled PPIase assay, using procedures described in Wei et al. [Nat Med 2015, 21:457-466].
The fluorescent polarization assay was performed in a dose-dependent and time-dependent manner, in order to further characterize the kinetic parameters of Pin1-3 binding to Pin1.

[1] = Thiol reactivity assay (DTNB); format: physicochemical; conditions: 200 μM compound, pH 7.4, 37° C.
Description: 50 μM DTNB (dithionitrobenzoic acid) was incubated with 200 μM TCEP (tris(2-carboxytehyl)phosphine) in 20 mM sodium phosphate buffer (pH 7.4) with 150 mM NaCl, for 5 minutes at room temperature, in order to obtain TNB^2− (thionitrobenzoate dianion). 200 μM compounds were subsequently added to the TNB^2−, followed by immediate UV absorbance measurement at 412 nm (at 37° C.). The UV absorbance was acquired every 15 minutes for 7 hours. The assay was performed in a 384-well plate using a Spark™ 10M plate reader (Tecan). Background absorbance of compounds was subtracted by measuring the absorbance at 412 nm of each compound under the same conditions without DTNB. Compounds were measured in triplicates. The data was fitted to a second order reaction equation such that the rate constant k is the slope of ln([A][B0]/[B][A0]), where [A0] and [B0] are the initial concentrations of the compound (200 μM) and TNB^2− (100 μM) respectively, and [A] and [B] are the remaining concentrations as a function of time, as determined from the spectrometric measurement. Linear regression using Prism® software was performed to fit the rate against the first four hours of measurements.
In order to estimate the influence of the various lipophilic moieties on “warhead” reactivity [Flanagan et al., J Med Chem 2014, 57:10072-10079; Lonsdale et al., J Chem Inf Model 2017, 57:3124-3137; Dahal et al., Medchemcomm 2016, 7:864-872], the thiol reactivity of the top ten binders of the second and third generation was assessed using a high-throughput assay previously applied to the entire fragment library, as described in Resnick et al. [J Am Chem Soc 2019, 141:8951-8968]. In brief, the second-order rate constant was evaluated for a model thiol, which reflects trends in general reactivity towards thiol groups.

MDA-MB-231 cells = assay: Cell viability assay (CellTiter-Glo); format: cell-based; conditions: cell viability assay with MDA-MB-231 cells
Description: MDA-MB-231 cells grew in DMEM medium supplemented with 10% FCS (fetal calf serum), 1% PS (penicillin-streptomycin) and 1% L-glutamine (all from Biological Industries). Exclusion of mycoplasma contamination was monitored and conducted by test with MycoAlert™ kit (Lonza). Cells were trypsinized and counted, and 1000 cells/well were plated in 50 μl of growth medium into 384-well white TC plates (Greiner) using Multidrop™ 384 (Thermo Scientific) Washer Dispenser II. The number of viable cells was monitored using CellTiter-Glo® Luminescent kit (Promega) in accordance with the manufacturer's protocol. Luminescence was measured using luminescence module of PHERAstar™ FS plate reader (BMG Labtech). Data analysis was performed using GeneData 12 analytic software. Assay ready plate preparation: Compounds transferred into black microplates (Greiner 784900) using Labcyte Echo® acoustic dispensing technology. Assay ready plates were then sealed with heat seals. If not used immediately, plates were frozen at −20° C. and held in polypropylene boxes with silica-gel desiccant.
Exemplary Pin1-binding compounds were also tested for non-selective cytotoxicity in a viability assay against IMR90 lung fibroblasts.

catalytic domain of Pin1 = molecular target: T1, catalytic domain of Pin1 (Homo sapiens, UniProt Q13526); assay: Intact protein LC/MS labeling of Pin1; format: binding
T1 construct: The purified catalytic domain of Pin1 was incubated with the fragment library
Description: 993 compounds were transferred to a 384-well plate working copy by combining 0.5 μl of 20 mM stock solution of four or five compounds per well. The catalytic domain of Pin1 (2 μM) in 20 mM Tris, 75 mM NaCl, pH 7.5 was incubated with 200 μM for each compound and moderately shaken for 24 hours at 4° C. The reaction was stopped by the addition of formic acid to 0.4% (v/v) final concentration.
Liquid chromatography/mass spectroscopy runs were performed on an Acquity™ UPLC® H-class system (Waters) in positive ion mode using electrospray ionization (ESI). UPLC separation was performed on a C4 column (300 Å, 1.7 μM, […]). The column was held at 40° C., and the autosampler at 10° C. Mobile solution A was 0.1% formic acid in water and mobile phase B was 0.1% formic acid in acetonitrile. Run flow was 0.4 ml/minute; and a gradient of 20% B for 2 minutes, increasing linearly to 60% B for 3 minutes, holding at 60% B for 1.5 minutes, changing to 0% B in 0.1 minute and holding at 0% for 1.4 minutes, was used. Desolvation temperature was 500° C. with a flow rate of 1000 liters/hour. The capillary voltage was 0.69 kV and cone voltage 46 V. Raw data was processed using OpenLynx™ software and deconvoluted using the MaxEnt tool. Labeling assignment was performed as described in Resnick et al. [J Am Chem Soc 2019, 141:8951-8968].
For the screening 2 μl of each of the 448 click products as 50 μM DMSO stocks were transferred into a 384-well plate working plate. 48 μl of catalytic domain of Pin1 (2 μM) in 20 mM Tris (pH 7.5) with 75 mM NaCl were added and moderately shaken and incubated for 15 minutes at room temperature. The reaction was stopped by the addition of formic acid to 0.4% (v/v) final concentration (20 μl). The mixtures were analyzed by liquid chromatography/mass spectroscopy analogously to the electrophile library incubations described herein. Hits were retrospectively analyzed by liquid chromatography/mass spectroscopy (LC-MS) to ensure reaction completion.
For each measured well, processed peaks were searched to match the mass of unlabeled protein or common small adducts of the unlabeled protein, which were found in the control sample or labeled protein. Labeling percentage for a compound was determined as the labeling of a specific compound divided by the overall detected protein species. Peaks whose mass could not be assigned were discarded from the overall labeling calculation. Data was analyzed using a python script for processing the MaxEnt-deconvoluted spectra. Peaks were normalized from ion counts to percentages, where the highest peak is defined as 100%. The unlabeled protein mass is deduced from a reference well that contains just the protein.
The purified catalytic domain of Pin1 was incubated with the fragment library (2 μM protein, 200 μM compound; 24 hours at 4° C.), followed by intact protein liquid chromatography/mass-spectrometry (LC/MS) to identify and quantify compound labeling. FIG. 1 depicts an example of a compound identified in this manner.
Based on the docking predictions, a total of 26 compounds that featured a range of small or bulky aliphatic, arylic, biphenylic or heterocyclic side-chains (structures depicted in FIG. 5), were synthesized or purchased. In order to identify potent binders, the irreversible labeling efficiency of these second-generation compounds was assessed alongside the original screening hits under more stringent conditions, with a 1:1 ratio of protein to compound (2 μM compound; 1 hour at room temperature).
For further optimization of the lipophilic moiety, an alkyne side chain-bearing analog was prepared, which was derivatized with 448 different azides using copper-catalyzed azide-alkyne cycloaddition (CuAAC).

[2] = 2 μM Pin1 with 2 μM test compound for 1 hour at room temperature

T1 sequence (Q13526 52-163 limits assumed): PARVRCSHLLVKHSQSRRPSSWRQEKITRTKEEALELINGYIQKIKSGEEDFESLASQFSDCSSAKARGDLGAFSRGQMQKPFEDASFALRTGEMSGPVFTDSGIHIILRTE
Chain of GST-Pin1 (Q13526 whole entry): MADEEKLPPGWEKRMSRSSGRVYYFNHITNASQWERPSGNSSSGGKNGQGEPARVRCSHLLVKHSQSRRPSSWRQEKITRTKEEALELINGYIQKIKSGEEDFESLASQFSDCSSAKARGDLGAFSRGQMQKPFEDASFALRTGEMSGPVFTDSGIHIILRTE

Compound | Ki (GST-Pin1) | Reactivity Log k [1] | Reactivity k [1] | EC50 (MDA-MB-231 cells) | Labeling [%] (catalytic domain of Pin1; [2]) | EC50 (MDA-MB-231 cells; Homo sapiens) | Labeling [%] (catalytic domain of Pin1; 2 μM Pin1 with 2 μM test compound for 15 minutes at room temperature)
O=C1C=CC(=O)c2c(O)cccc21 [Juglone, 5-hydroxy-1,4-naphthalenedione, reference compound] | 1.75 µM |  |  |  |  |  | 
O=C(CCl)N(C1CCS(=O)(=O)C1)C(Cc1ccccc1)c1ccccc1 (centres unmarked) [Pin1-2-1] | 0.058 µM | −6.96 | 1.09e-07 M⁻¹ s⁻¹ | 2.8 µM | 50% |  | 
O=C(CCl)N(CC1CCCCC1)C1CCS(=O)(=O)C1 (centres unmarked) [Pin1-2-3, 2-chloro-N-(sulfolan-3-yl)-N-(cyclohexylmethyl)acetamide] | 0.046 µM | −6.82 | 1.53e-07 M⁻¹ s⁻¹ |  |  | 7.5 µM | 42%
Cc1cccc(CN(C(=O)CCl)C2CCS(=O)(=O)C2)c1 (centres unmarked) [Pin1-2-6] | 0.194 µM | −6.80 | 1.58e-07 M⁻¹ s⁻¹ | 5.6 µM | 30% |  | 
O=C(CCl)N(Cc1ccccc1OCc1ccccc1)C1CCS(=O)(=O)C1 (centres unmarked) [Pin1-2-7] | 0.039 µM | −6.99 | 1.02e-07 M⁻¹ s⁻¹ | 6.1 µM | 37% |  | 
Cc1ccsc1CN(C(=O)CCl)C1CCS(=O)(=O)C1 (centres unmarked) [Pin1-2-8] | 0.133 µM | −6.66 | 2.19e-07 M⁻¹ s⁻¹ | 5.1 µM | 52% |  | 
CC1(N(Cc2ccccc2)C(=O)CCl)CCS(=O)(=O)C1 (centres unmarked) [Pin1-2-9] | 0.083 µM | −7.11 | 7.68e-08 M⁻¹ s⁻¹ | 11.3 µM | 43% |  | 
O=C(CCl)N(CC1CC1)C1CCS(=O)(=O)C1 (centres unmarked) [Pin1-3-13] | 0.121 µM | −6.82 | 1.5e-07 M⁻¹ s⁻¹ |  |  |  | 
O=C(CCl)N(Cc1ccco1)C1CCS(=O)(=O)C1 (centres unmarked) [Pin1-128] |  | −6.83 | 1.47e-07 M⁻¹ s⁻¹ |  | 25% |  | 
COCCN(C(=O)CCl)C1CCS(=O)(=O)C1 (centres unmarked) [Pin1-324] |  | −6.80 | 1.59e-07 M⁻¹ s⁻¹ |  | 12% |  | 
O=C(CCl)N(Cc1cccs1)C1CCS(=O)(=O)C1 (centres unmarked) [Pin1-433] |  | −6.67 | 2.13e-07 M⁻¹ s⁻¹ | 8.9 µM | 45% |  | 
CN(C)CCN(C(=O)CCl)C1CCS(=O)(=O)C1 (centres unmarked) [Pin1-707] |  | −8.93 | 1.17e-09 M⁻¹ s⁻¹ |  | 0% |  | 
O=C(CCl)N(CC1CCCO1)C1CCS(=O)(=O)C1 (centres unmarked) [Pin1-838] |  | −6.85 | 1.41e-07 M⁻¹ s⁻¹ |  | 16% |  | 
